Columns and labels:
[1] = system: Sweet Potato Whitefly (Bemisia tabaci, BEMITA); experiment: Bioassay 2: Sweet Potato Whitefly, spray on cotton seedlings at crawler emergence, nymphs counted 7-9 days after treatment; assay type: in vivo
How it was run: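 Cotton seedlings pruned to one true leaf were colonized by adult B. tabaci for 24 h egg-laying, then sprayed once >25% crawler emergence was underway; solutions 0.001% to 0.00000001% (w/v) in acetone/water with 0.025% Tween 20. Held ~25° C; live 2-3 instar nymphs counted 7-9 days later, Abbott-corrected % control.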

[2] = system: Beet Armyworm (Spodoptera exigua, LAPHEG); experiment: Bioassay 6: Beet Armyworm, artificial lepidopteran diet, live larvae after 5 days; assay type: in vivo; details: BAW
Procedure: where X=No. of live nymphs on solvent check and Y=No. of live nymphs on treated bean segments. In Table B5 the “Expected % Control” was calculated using the method described in Colby S. R., Weeds, 1967, 15, 20-22. Bioassay 6: Beet Armyworm (Spodoptera exigua, LAPHEG) (BAW), and Diamondback Moth (Plutella xylostella, PLUTMA) (DBM).
Stock solutions were prepared with Formula One as well as for each of the active ingredients individually. Test solutions were prepared from the stock solutions. Test solutions were prepared containing Formula One, the individual active ingredients, and mixtures of Formula One with each of the active ingredients. […]
The test solutions were tested against BAW and DBM using the following procedure: An artificial lepidopteran diet (Multispecies Lepidopteran Diet, Southland Products) was distributed in 128-cell bioassay trays (Frontier Agricultural Sciences™). […] After 5 days, the number of live larvae were recorded from each cell and percent control was measured using Abbott's correction formula (W. S. Abbott, J. Econ. Entomol. 18 (1925), pp. 265-267) as follows:
where X=No. of live larvae on solvent check and Y=No. of live larvae on treated diet. In Table B6 the “Expected % Control” was calculated using the method described in Colby S. R., Weeds, 1967, 15, 20-22. […]

Compound	Average % Control AI ([1]; AI alone 1 (10-5) % w/v) [%]	Average % Control AI ([1]; AI alone 0.1 (10-5) % w/v) [%]	further results
Cc1c(COC(=O)[C@@H]2[C@H](/C=C(\Cl)C(F)(F)F)C2(C)C)cccc1-c1ccccc1 (racemic) [Bifenthrin]	40		
CC1(C)[C@H](C(=O)O[C@H](C#N)c2cccc(Oc3ccccc3)c2)[C@@H]1/C=C(\Cl)C(F)(F)F (racemic) [Lambda Cyhalothrin]	27		
C/C(=N\C#N)N(C)Cc1ccc(Cl)nc1 [Acetamiprid]	29		
CCN(C(=O)CCS(C)(=O)=O)c1sc(-c2cccnc2)nc1Cl [Formula F1, N-(4-chloro-2-(pyridin-3-yl)thiazol-5-yl)-N-ethyl-3-(methylsulfonyl)propanamide]			Average % Control F1 ([2]; F1 alone 0.4 % w/v): 0%
Abamectin		16	Average % Control AI ([2]; AI alone, Ratio F1:AI 100:1): 50%
Emamectin Benzoate	5	0	

Reference: US20250338846A1, “COMPOSITIONS HAVING PESTICIDAL UTILITY AND PROCESSES RELATED THERETO” (CORTEVA AGRISCIENCE, LLC, priority 2022, published 2025)
